Test results taken from patent publication US10005768B2, “Carboxamide derivatives and use thereof” (Purdue Pharma L.P., priority 2013, dated 2018).

Biological target: human Nav1.7 (Homo sapiens (Human), UniProt Q15858)
Test: FLIPR sodium dye assay (CoroNa Green AM Na+ dye, primary fluorescence assay)
Format: cell-based
Details: recombinant Nav1.7/HEK293 cells
Outline: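 HEK293 cells stably expressing human Nav1.7 α subunit (no β/γ subunits), loaded with 5 μM CoroNa Green Na+ dye in HEPES-buffered Hanks-type saline, pH 7.3. Na+ influx stimulated by 100 μM veratridine plus 10 μg/mL Leiurus scorpion venom; compounds tested at 20 μM down to 0.001 μM (10 points, 0.2% DMSO).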

Sequence of human Nav1.7 (Q15858 other isoform, or with tags, fused parts or gaps): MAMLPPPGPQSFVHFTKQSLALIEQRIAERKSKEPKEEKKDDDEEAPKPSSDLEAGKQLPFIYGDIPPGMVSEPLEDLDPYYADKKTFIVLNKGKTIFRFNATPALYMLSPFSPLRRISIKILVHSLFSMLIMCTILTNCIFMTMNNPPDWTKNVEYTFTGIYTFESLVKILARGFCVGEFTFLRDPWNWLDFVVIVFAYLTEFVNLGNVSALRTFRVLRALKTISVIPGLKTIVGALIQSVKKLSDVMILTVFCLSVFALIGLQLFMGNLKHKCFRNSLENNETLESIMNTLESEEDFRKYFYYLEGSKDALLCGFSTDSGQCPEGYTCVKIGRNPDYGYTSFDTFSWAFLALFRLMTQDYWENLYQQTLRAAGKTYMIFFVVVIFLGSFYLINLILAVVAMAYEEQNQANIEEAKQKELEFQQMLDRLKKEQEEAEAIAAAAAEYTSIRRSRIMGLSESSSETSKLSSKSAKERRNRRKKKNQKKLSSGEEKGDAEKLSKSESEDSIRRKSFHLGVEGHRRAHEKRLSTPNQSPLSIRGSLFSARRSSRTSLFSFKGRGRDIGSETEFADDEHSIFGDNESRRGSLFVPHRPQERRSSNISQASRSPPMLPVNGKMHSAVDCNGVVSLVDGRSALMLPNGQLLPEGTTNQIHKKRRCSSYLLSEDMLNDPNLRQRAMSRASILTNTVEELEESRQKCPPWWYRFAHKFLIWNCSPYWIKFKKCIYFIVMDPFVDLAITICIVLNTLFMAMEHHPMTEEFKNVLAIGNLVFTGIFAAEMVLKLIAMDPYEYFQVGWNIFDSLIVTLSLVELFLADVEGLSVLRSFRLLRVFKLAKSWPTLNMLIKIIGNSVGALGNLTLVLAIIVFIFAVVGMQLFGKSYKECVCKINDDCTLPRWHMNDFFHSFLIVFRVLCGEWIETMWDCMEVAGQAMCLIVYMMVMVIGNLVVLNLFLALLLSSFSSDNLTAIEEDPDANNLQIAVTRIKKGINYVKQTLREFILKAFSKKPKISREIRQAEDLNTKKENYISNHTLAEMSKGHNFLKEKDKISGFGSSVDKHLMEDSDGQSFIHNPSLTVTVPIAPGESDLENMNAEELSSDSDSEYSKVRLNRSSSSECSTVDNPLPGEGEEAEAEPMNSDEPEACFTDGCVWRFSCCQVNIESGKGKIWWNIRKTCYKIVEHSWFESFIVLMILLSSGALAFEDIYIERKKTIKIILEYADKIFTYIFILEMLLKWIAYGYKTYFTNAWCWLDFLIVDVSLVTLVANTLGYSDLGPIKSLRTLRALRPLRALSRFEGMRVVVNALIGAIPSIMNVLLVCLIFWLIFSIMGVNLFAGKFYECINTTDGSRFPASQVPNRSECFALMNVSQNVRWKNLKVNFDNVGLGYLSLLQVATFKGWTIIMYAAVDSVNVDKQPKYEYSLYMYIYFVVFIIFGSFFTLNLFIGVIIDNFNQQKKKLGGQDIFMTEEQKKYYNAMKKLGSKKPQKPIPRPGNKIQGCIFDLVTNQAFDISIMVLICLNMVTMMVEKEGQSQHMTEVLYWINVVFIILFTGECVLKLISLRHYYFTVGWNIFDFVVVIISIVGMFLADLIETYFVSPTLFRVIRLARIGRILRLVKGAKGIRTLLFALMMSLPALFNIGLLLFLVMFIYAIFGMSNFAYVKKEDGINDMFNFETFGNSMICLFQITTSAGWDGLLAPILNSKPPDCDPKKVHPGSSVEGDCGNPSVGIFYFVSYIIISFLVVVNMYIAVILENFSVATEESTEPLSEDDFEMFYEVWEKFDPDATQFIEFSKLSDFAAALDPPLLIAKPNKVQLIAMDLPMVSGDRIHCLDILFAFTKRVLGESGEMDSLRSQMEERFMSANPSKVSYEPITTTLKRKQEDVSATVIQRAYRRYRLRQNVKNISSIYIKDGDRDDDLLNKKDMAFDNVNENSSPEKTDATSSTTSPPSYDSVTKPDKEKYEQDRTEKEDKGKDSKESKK

Structure (SMILES)	IC50
NC(=O)c1cccc(-c2ccc(Oc3ccc(C(F)(F)F)c(CN4CCNC(=O)C4)c3)cc2)n1 [compound 106, 6-(4-(3-((3-oxopiperazin-1-yl)methyl)-4-(trifluoromethyl)-phenoxy)phenyl)picolinamide]	0.455 ± 0.059 µM
OC[C@@H](O)c1cccc(-c2ccc(Oc3ccc(C(F)(F)F)cc3CN3CCCCC3)cc2)n1 [compound 107, (S)-1-(6-(4-(2-(piperidin-1-ylmethyl)-4-(trifluoromethyl)phenoxy)phenyl)pyridin-2-yl)ethane-1,2-diol]	0.174 ± 0.041 µM
NC(=O)c1cccc(-c2ccc(Oc3ccc(C(F)(F)F)cc3CNC3CCCC3)cc2)n1 [compound 108, 6-(4-(2-((cyclopentylamino)-methyl)-4-(trifluoromethyl)-phenoxy)phenyl)picolinamide]	0.28 ± 0.009 µM
CCN(CC)S(=O)(=O)c1cc(C(F)(F)F)ccc1Oc1ccc(-c2cccc(C(N)=O)n2)cc1 [compound 109, 6-(4-(2-(N,N-diethylsulfamoyl)-4-(trifluoromethyl)phenoxy)phenyl)picolinamide]	1.3 ± 0.056 µM
NC(=O)c1cccc(-c2ccc(Oc3ccc(C(F)(F)F)cc3C(C(=O)N3CCCC3)N3CCCC3)cc2)n1 (centres unmarked) [compound 111, 6-(4-(2-(2-oxo-1,2-di(pyrrolidin-1-yl)ethyl)-4-(trifluoromethyl)phenoxy)phenyl) picolinamide]	6.59 ± 0.321 µM
NC(=O)c1cccc(-c2ccc(Oc3ccc(C(F)(F)F)cc3C(C(=O)N3CCCC3)N3CCNC(=O)C3)cc2)n1 (centres unmarked) [compound 112, 6-(4-(2-(2-oxo-1-(3-oxopiperazin-1-yl)-2-(pyrrolidin-1-yl)ethyl)-4-(trifluoromethyl)phenoxy)phenyl) picolinamide]	> 20 µM
CCN(CC)S(=O)(=O)c1cc(C(F)(F)F)ccc1Oc1ccc(-c2cccc([C@H](O)CO)n2)cc1 [compound 113, (S)-2-(4-(6-(1,2-dihydroxyethyl)pyridin-2-yl)phenoxy)-N,N-diethyl-5-(trifluoromethyl)benzenesulfonamide]	0.249 ± 0.016 µM
NC(=O)c1cccc(-c2ccc(Oc3ccc(C(F)(F)F)cc3CNc3nccs3)cc2)n1 [compound 114, 6-(4-(2-((thiazol-2-ylamino)methyl)-4-(trifluoromethyl)phenoxy)phenyl) picolinamide]	2.01 ± 0.456 µM
OC[C@H](O)c1ccnc(-c2ccc(Oc3ccc(C(F)(F)F)cc3CN3CCCC3)cc2)n1 [compound 115, (R)-1-(2-(4-(2-(pyrrolidin-1-ylmethyl)-4-(trifluoromethyl)phenoxy)phenyl)pyrimidin-4-yl)ethane-1,2-diol]	0.455 ± 0.067 µM
OC[C@@H](O)c1ccnc(-c2ccc(Oc3ccc(C(F)(F)F)cc3CN3CCCC3)cc2)n1 [compound 116, (S)-1-(2-(4-(2-(pyrrolidin-1-ylmethyl)-4-(trifluoromethyl)phenoxy)phenyl)pyrimidin-4-yl)ethane-1,2-diol]	0.636 ± 0.065 µM
CCN(C)Cc1cc(C(F)(F)F)ccc1Oc1ccc(-c2cccc(C(N)=O)n2)cc1 [compound 117, 6-(4-(2-((ethyl(methyl)amino)methyl)-4-(trifluoromethyl)phenoxy)phenyl) picolinamide]	0.066 ± 0.007 µM
CCN(CC)Cc1cc(C(F)(F)F)ccc1Oc1ccc(-c2cccc(C(N)=O)n2)cc1 [compound 118, 6-(4-(2-((diethylamino)methyl)-4-(trifluoromethyl)phenoxy)phenyl) picolinamide]	0.118 ± 0.012 µM
CCN(CCO)Cc1cc(C(F)(F)F)ccc1Oc1ccc(-c2cccc(C(N)=O)n2)cc1 [compound 119, 6-(4-(2-((ethyl(2-hydroxyethyl)amino)methyl)-4-(trifluoromethyl)phenoxy)phenyl) picolinamide]	0.59 ± 0.092 µM
CCN(CCN(C)C)Cc1cc(C(F)(F)F)ccc1Oc1ccc(-c2cccc(C(N)=O)n2)cc1 [compound 120, 6-(4-(2-(((2-(dimethylamino)ethyl)(ethyl)amino)methyl)-4-(trifluoromethyl)phenoxy)phenyl) picolinamide]	0.578 ± 0.098 µM
